In test [1] the target is T1, Gag-Pol polyprotein [588-1027,K691N,Y769C]/[588-1147,K691N,Y769C] (Human immunodeficiency virus 1, UniProt P04585, K691N/Y769C).
T1 construct: 588-1027; 588-1147
The test can be described thus: HIV-1 Reverse Transcriptase Assay. Particulars: pH 8; 30 °C. From the text:
(§1) IC50s were obtained from the inhibition of the RNA-dependent DNA polymerase activity of the HIV-1 reverse transcriptase enzyme using a primer extension assay. EC50s were obtained from inhibition of virus-induced cell-death in MT-4 cells.

Test [2] deals with T2, Gag-Pol polyprotein [588-1027] (Human immunodeficiency virus type 1 group M subtype B (isolate HXB2), UniProt P04585).
T2 construct: 588-1027
The test can be described thus: HIV-1 Reverse Transcriptase Assay. The settings on record: pH 8; 30 °C.
Description: as §1

What is called pEC50 is −log10 of the EC50, conventionally taken in molar units.

The structures appear in SMILES notation. pEC50: −log10 of the molar value.

In test [1], `Cc1cc(C#N)cc(Oc2ccc(Cc3n[nH]c4nnccc34)cc2Br)c1` [3-(2-bromo-4-{1H-pyrazolo[3,4-c]pyridazin-3-ylmethyl}phenoxy)-5-methylbenzonitrile] gave a pEC50 of under 7.00.
Regarding `N#Cc1cc(Cl)cc(Oc2c(Br)ccc(Cc3n[nH]c4nccnc34)c2F)c1` [3-(6-bromo-2-fluoro-3-{1H-pyrazolo[3,4-b]pyrazin-3-ylmethyl}phenoxy)-5-chlorobenzonitrile], the pEC50 is under 7.00 in test [1] and under 7.60 in test [2].

The values above are taken from BindingDB's records for doi:10.1021/jm800527x (Roche Palo Alto, 2008).
